Experimental data from ChEMBL document CHEMBL1133485, “3alpha-(4-Substituted phenyl)nortropane-2beta-carboxylic acid methyl esters show selective binding at the norepinephrine transporter” (Bioorg Med Chem Lett, 2000).

What was measured:
[1] = biological target: T1, Norepinephrine transporter (Rattus norvegicus, UniProt Q9WTR4); experiment: Inhibition of 0.5 nM [3H]nisoxetine binding to Norepinephrine transporter
[2] = biological target: Sodium-dependent dopamine transporter (Rattus norvegicus, UniProt P23977); experiment: Displacement of 0.5 nM [3H]WIN-35248 from Dopamine transporter
Chain of Sodium-dependent dopamine transporter (P23977 whole entry): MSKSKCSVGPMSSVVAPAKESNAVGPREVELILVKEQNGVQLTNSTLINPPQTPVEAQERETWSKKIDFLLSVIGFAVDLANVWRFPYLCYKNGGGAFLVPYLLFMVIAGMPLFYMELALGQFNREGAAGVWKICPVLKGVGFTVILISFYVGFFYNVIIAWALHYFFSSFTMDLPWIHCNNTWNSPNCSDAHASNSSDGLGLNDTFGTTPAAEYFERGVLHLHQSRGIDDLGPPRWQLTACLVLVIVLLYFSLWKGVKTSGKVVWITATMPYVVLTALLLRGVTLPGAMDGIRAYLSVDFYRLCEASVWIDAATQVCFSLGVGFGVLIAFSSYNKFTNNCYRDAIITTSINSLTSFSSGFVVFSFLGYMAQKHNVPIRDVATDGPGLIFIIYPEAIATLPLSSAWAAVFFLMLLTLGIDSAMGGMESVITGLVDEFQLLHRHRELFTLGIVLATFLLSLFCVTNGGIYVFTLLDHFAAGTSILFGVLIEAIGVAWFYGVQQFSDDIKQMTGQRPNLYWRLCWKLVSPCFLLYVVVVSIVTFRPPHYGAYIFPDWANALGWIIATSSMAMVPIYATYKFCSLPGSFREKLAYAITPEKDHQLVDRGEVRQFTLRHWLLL

[3] = biological target: T1, Norepinephrine transporter; experiment: Inhibition of 0.5 nM [3H]nisoxetine binding toNorepinephrine transporter
[4] = biological target: T2, Sodium-dependent serotonin transporter (Rattus norvegicus, UniProt P31652); experiment: Inhibition of 0.2 nM [3H]paroxetine binding to Serotonin transporter
T2 sequence (P31652 whole entry): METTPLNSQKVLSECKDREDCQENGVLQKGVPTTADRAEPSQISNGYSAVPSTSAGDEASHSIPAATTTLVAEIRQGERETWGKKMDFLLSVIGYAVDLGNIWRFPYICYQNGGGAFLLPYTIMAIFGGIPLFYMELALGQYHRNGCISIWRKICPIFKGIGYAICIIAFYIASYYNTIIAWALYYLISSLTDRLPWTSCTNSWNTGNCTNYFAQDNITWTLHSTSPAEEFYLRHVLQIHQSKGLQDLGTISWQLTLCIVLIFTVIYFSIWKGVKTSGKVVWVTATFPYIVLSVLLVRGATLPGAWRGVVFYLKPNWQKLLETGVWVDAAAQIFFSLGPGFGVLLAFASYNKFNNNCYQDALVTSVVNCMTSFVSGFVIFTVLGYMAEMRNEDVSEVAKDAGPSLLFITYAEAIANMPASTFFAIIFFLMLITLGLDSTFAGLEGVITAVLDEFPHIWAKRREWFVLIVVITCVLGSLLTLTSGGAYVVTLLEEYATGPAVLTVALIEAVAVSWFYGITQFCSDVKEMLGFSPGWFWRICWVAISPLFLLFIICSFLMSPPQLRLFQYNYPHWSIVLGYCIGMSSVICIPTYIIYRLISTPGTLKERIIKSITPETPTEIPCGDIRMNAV

[5] = biological target: T2, Sodium-dependent serotonin transporter

T1 sequence (Q9WTR4 whole entry): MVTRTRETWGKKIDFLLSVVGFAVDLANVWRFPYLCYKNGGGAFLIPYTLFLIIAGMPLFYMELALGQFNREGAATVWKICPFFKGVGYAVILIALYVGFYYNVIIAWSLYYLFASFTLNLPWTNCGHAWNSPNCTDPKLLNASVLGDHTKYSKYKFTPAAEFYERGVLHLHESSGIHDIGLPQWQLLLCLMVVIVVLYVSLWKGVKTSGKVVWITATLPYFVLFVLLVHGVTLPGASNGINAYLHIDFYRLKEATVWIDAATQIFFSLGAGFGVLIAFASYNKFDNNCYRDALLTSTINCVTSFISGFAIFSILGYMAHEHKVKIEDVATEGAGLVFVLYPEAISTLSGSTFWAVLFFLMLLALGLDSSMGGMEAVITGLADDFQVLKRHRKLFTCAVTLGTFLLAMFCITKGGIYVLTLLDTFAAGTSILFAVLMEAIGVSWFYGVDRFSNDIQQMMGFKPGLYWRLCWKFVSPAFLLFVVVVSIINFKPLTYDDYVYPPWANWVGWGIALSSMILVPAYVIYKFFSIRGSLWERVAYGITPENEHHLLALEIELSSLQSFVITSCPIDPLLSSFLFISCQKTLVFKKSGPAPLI

| SMILES | Ki [1] [nM] | IC50 [2] [nM] | IC50 [3] [nM] | IC50 [4] [nM] | Ki [5] [nM] |
| --- | --- | --- | --- | --- | --- |
| COC(=O)C1C(c2ccc(C)cc2)CC2CCC1N2C (stereo in doubt; 6c) | 36 |  |  |  |  |
| COC(=O)C1C2CCC(CC1c1ccc(F)cc1)N2 (stereo in doubt; 4a) | 5.9 | 32.6 | 9.8 | 92.4 | 8.4 |
| COC(=O)C1C2CCC(CC1c1ccc(C)cc1)N2 (stereo in doubt; 4c) | 5.2 | 33.6 | 9 | 500 | 46 |
| COC(=O)[C@H]1[C@@H](c2ccc(F)cc2)C[C@H]2CC[C@H]1N2C (stereo in doubt; 6a) | 503 |  |  |  | 69 |
| COC(=O)C1C2CCC(CC1c1ccc(F)cc1)N2 (stereo in doubt; 7a) | 11.3 | 4.4 | 18.8 |  | 6.24 |
| COC(=O)C1C2CCC(CC1c1ccc(Cl)cc1)N2 (stereo in doubt; 4b) | 3.1 | 3.1 | 5.14 | 53 | 4.8 |
| COC(=O)C1C(c2ccc(Cl)cc2)CC2CCC1N2C (stereo in doubt; 6b) |  |  |  |  | 4 |
| COC(=O)C1C(c2ccc(C)cc2)CC2CCC1N2C (stereo in doubt; 5c) | 160 |  | 270 |  |  |
| COC(=O)C1C2CCC(CC1c1ccc(Cl)cc1)N2 (stereo in doubt; 7b) | 3.28 |  | 5.45 |  | 0.38 |
| COC(=O)C1C2CCC(CC1c1ccc(C)cc1)N2 (stereo in doubt; 7c) | 4.4 | 0.84 | 7.2 | 135 | 12 |
| COC(=O)C1C(c2ccc(Cl)cc2)CC2CCC1N2C (stereo in doubt; 5b) |  |  |  |  | 91 |
| COC(=O)[C@H]1[C@@H](c2ccc(F)cc2)C[C@H]2CC[C@H]1N2C (stereo in doubt; 5a) | 741 |  |  |  | 460 |
